Columns and labels:
[1] = tested on: metastatic colorectal cancer; assay: phase I/II study of the combination of Compound A1 with Compound Mixture B1 (UMIN000017114); assay type: in vivo, patients
Description: The key eligibility criteria were patients with metastatic colorectal cancer refractory or intolerant to fluoropyrimidine, irinotecan, oxaliplatin, anti-angiogenesis inhibitor and anti-EGFR antibody (if wild-type RAS) and without prior regorafenib and Compound Mixture B1 treatment; at least one measurable lesion; and ECOG performance status of 0 or 1.
Secondary endpoints included overall survival (OS), PFS, objective response rate, disease control rate, safety, and pharmacokinetic parameters.
Key Inclusion Criteria: • 1) Written informed consent • 2) >=20 years old • 3) Histologically or cytologically proven adenocarcinoma of colon or rectum (except appendiceal cancer), and KRAS test were carried out. • 4) Prior chemotherapy was discontinued due to disease progression, or an adverse event. • 5) No prior treatment with Regorafenib • 6) ECOG Performance Status of 0 or 1 • 7) Adequate oral intake • 8) With measurable disease according to RECIST • 9) Adequate organ function within 14 days prior to enrollment. • a. Hemoglobin>=9.0 g/d • b. Absolute neutrophil count>=1,500/mm3 • c. Platelet count>=100,000/mm3 • d with no liver metastasis, AST/ALT<=ULNx1.5 and T-Bil<=UNL with liver metastasis, AST/ALT<=ULNx2.5 and T-Bil<=UNL • e Serum creatinine<=1.5 mg/dL • 10) Women of childbearing potential must have a negative pregnancy test within 7 days prior to enrollment. […]

Rip-Tag = assay: in vivo anti-tumor efficacy, pancreas murine transgenic model Rip-Tag
SKOV3 = assay: in vivo anti-tumor efficacy, ovarian xenograft model SKOV3; details: SKOV3, 50 mg/kg/d
Caki-1 = assay: in vivo anti-tumor efficacy, renal xenograft model Caki-1; details: Caki-1, 100 mg/kg/d
GS-9L = assay: in vivo anti-tumor efficacy, glioblastoma GS-9L syngeneic rat tumor model; details: 50 mg/kg/d
HT-29 = assay: in vivo anti-tumor efficacy, colorectal xenograft model HT-29
Calu-6 = assay: in vivo anti-tumor efficacy, non-small-cell lung xenograft model Calu-6; details: Calu-6, 50 mg/kg/d
PAC-120 = assay: in vivo anti-tumor efficacy, hormone-dependent prostate xenograft model PAC-120; details: PAC-120, 100 mg/kg/d
NCI-H460 = assay: in vivo anti-tumor efficacy, non-small-cell lung xenograft model NCI-H460; details: NCI-H460, 25 mg/kg/d
FaDu = assay: in vivo anti-tumor efficacy, head and neck xenograft model FaDu; details: 100 mg/kg/d

COC(=O)c1ccc2c(c1)NC(=O)/C2=C(\Nc1ccc(N(C)C(=O)CN2CCN(C)CC2)cc1)c1ccccc1 [Compound A, 3-Z-[1-(4-(N-((4-methyl-piperazin-1-yl)-methylcarbonyl)-N-methyl-amino)-anilino)-1-phenyl-methylene]-6-methoxycarbonyl-2-indolinone]
Two dose reduction of nintedanib, Reason ([1]; All enrolled patients, N = 35): DILI (cycle 1, cycle 4) | patients requiring at least one dose reduction of nintedanib ([1]; all enrolled 35 patients, combination treatment): Five | Efficacy (Rip-Tag): interference with tumor | Efficacy T/C (SKOV3): T/C 19% @ 50 mg/kg/d | Efficacy T/C (Caki-1): T/C 13% @ 100 mg/kg/d | Efficacy T/C (GS-9L): T/C 32% @ 50 mg/kg/d | Efficacy T/C (HT-29; HT-29 colorectal model, 100 mg/kg/d, T/C = reduction of tumor size in % of the control): T/C 16% @ 100 mg/kg/d | Efficacy (HT-29; HT-29 large tumors): tumor volume reduction | Efficacy T/C (Calu-6): T/C 24% @ 50 mg/kg/d | Efficacy T/C (PAC-120): T/C 34% @ 100 mg/kg/d | Efficacy T/C (NCI-H460): T/C 54% @ 25 mg/kg/d | Efficacy T/C (FaDu): T/C 11% @ 100 mg/kg/d
